Test system: subjects with RRMS
Experiment: BRAVO phase III trial: laquinimod vs placebo and Interferon β-1a (Avonex) reference arm
Type: in vivo, human
Description: A multinational, multicenter, randomized, parallel-group, clinical trial is performed in subjects with RRMS (“BRAVO”).
Interferon β-1a (Avonex®) 30 mcg intramuscular injection once weekly (400 subjects).
During the study, the following assessments are performed (regardless of the treatment assignment) at the specified time points: • 1. Vital signs (temperature, pulse, blood pressure) are measured at each study visit. • 2. A physical examination is performed at months −1 (screening), (baseline) 1, 3, 6, 12, 18 and 24 (termination/early discontinuation). • 3. The following safety clinical laboratory tests are performed: • a. Hematology and Complete blood count (CBC) with differential—at all scheduled visits. A reticulocyte count is added to the CBC at months 0 (baseline) and 24 (termination/early discontinuation) as well as in occasions of significant decrease in hemoglobin. • b. Serum chemistry (including electrolytes, liver enzymes, direct and total bilirubin, CPK and pancreatic amylase), and urinalysis—at all scheduled visits. • c. Serum TSH, T3 and Free T4 are measured at months 0 (baseline), 6, 12, 18 and 24 (termination/early discontinuation). • d. A rapid urine β-hCG test is performed in women of child-bearing potential at baseline (month 0; all subjects) and at each scheduled study visit thereafter (at site; only subjects assigned to oral treatment). • e. β-hCG in women of child-bearing potential are performed at each study visit. • f. Starting after visit Month 3 a rapid urine β-hCG test is performed in women of child-bearing potential (only those assigned to oral treatment) every 28 (±2) days. The subject is contacted by telephone with 72 hours after the test is scheduled to be performed and asked specific questions regarding the test. In case of suspected pregnancy (positive urine β-hCG test result), the caller makes sure that the study drug has been discontinued and the subject is instructed to arrive to the site as soon as possible with all study drugs. • 4. Markers of inflammation (serum conventional C-reactive protein and fibrinogen) are measured at all scheduled visits. • 5. […] These samples are collected at months 0, 12 and 24. • 6. […] In case of suspected thrombotic event, the subject is requested to arrive at the site immediately for further evaluation. […] ECG is performed at months −1 (screening; additional recording, up to 30 minutes apart are performed if QTc is >450 msec), 0 (baseline; three recordings, 15 minute apart), 1, 2, 3, 6, 12, 18 and 24 (termination/early discontinuation). • 8. Chest X-ray is performed at month −1 (screening) (if not performed within 6 months prior to screening visit). • 9. Adverse Events (AEs) are monitored throughout the study and recorded. • 10. Concomitant medications are monitored throughout the study. • 11. Neurological evaluations, including Neurostatus [Functional Systems (FS), Expanded Disability Status Scale (EDSS; Converted scale), Ambulation Index (AI)] and Timed-25 foot walk test are performed at months −1 (screening), 0 (baseline) and every 3 months thereafter, until termination/early discontinuation. (At screening visit, the Timed-25 foot walk test is performed 3 times, for practicing purposes, as a part of the MSFC). • 12. MS Functional Composite (MSFC) is assessed at months −1 (screening) (three practices for training purposes only), 0 (baseline), 6, 12, 18 and 24 (termination/early discontinuation). • 13. The general health status is assessed by the EuroQoL (EQ5D) questionnaire at months 0 (baseline) and 24 (termination/early discontinuation). • 14. The general health status and quality of life parameters are assessed by the Short-Form general health survey (SF-36) subject-reported questionnaire at month 0 (baseline) and every 6 months thereafter until termination/early discontinuation, inclusive. • 15. Subject-reported fatigue is assessed by the Modified Fatigue Impact Scale (MFIS) at months 0 (baseline), 2, 6, 12, 18 and 24 (termination/early discontinuation). • 16. […]

[1] = 0.6 mg daily oral compared to weekly 30 mcg Interferon β-1a (Avonex)

Question: How did the “Accumulation of physical disability (MSFC score, time to confirmed progression of EDSS)” value (0.6 mg daily oral) turn out when CCN(C(=O)c1c(O)c2c(Cl)cccc2n(C)c1=O)c1ccccc1 [Laquinimod, laquinimod] was run?
Answer: reduces the accumulation of physical disability

Question: What about the “Brain atrophy (percent brain volume change from baseline to end of treatment)” value (0.6 mg daily oral) of the same compound?
Answer: reduces brain atrophy

Question: And the “Fatigue (MFIS)” value (0.6 mg daily oral)?
Answer: reduces the fatigue

Question: And the “General health status (SF-36)” value (0.6 mg daily oral)?
Answer: improves the general health status

Question: What about the “Prevention or delay of relapses” value (0.6 mg daily oral) of the same compound?
Answer: prevents or delays relapses

Question: What about the “Quality of life (EuroQoL EQ5D)” value (0.6 mg daily oral) of the same compound?
Answer: improves the quality of life

Question: And the “Severe relapses (requiring hospitalization or intravenous steroid treatment)” value (0.6 mg daily oral)?
Answer: reduces the rate of severe relapses or the severity of relapses

Question: And the Adverse effects [1]?
Answer: fewer adverse effects, less severe adverse effects

Question: What about the “Safety and tolerability profile” value [1] of the same compound?
Answer: favorable safety and tolerability profile

Question: What about the “Number of confirmed relapses” value (0.6 mg daily oral, vs placebo and Avonex arm) of the same compound?
Answer: reduces the number of confirmed relapses

Reference: patent US20120142730A1 (priority 2010, published 2012)
